The target in one test is T1, FAK and IGF-1R (Homo sapiens, UniProt Q05397).
T1 construct: endogenous in cells; host or cells: C8161 (A2) and A375 (A3) melanoma cells
Description: Coimmunoprecipitation of FAK and IGF-1R in C8161 melanoma cells. In kind it is cell-based. Conditions: average IC50, C8161 cells, immunoprecipitation with antibody against FAK; read-out: IC50, disruption of FAK/IGF-1R binding. The text has this:
Computational Docking The crystal structures of the N-terminal domain of FAK (PDB code 2AL6) (22) and the kinase domain of IGF-1R(PDB 1P40A) (23) were utilized for in silico molecular modeling of their interaction as previously described. The three-dimensional coordinates of compound NSC344553 (INT2-31), obtained from the database of the National Cancer Institute, Developmental Therapeutics Program (NCI/DTP), were docked onto the predicted interface of the amino-terminus of FAK (amino acids 127-243) with the intracytoplasmic portion of IGF-1R (21). […] 100 orientations were created for NSC344553 in the target site and were scored using the computer program grid-based scoring function. […] The intermolecular energies for all configurations of NSC 344553 in binding to FAK-NT2 were calculated as the sum of electrostatic and van der Waals energies. These energy terms were evaluated as correlation functions, which were computed efficiently with Fast Fourier Transforms. […] Bound proteins were boiled in 6× Laemmli buffer and analyzed by SDS-PAGE and Western blotting. […] The intensity of the bands in the western blots was measured with scion image analysis software program. […]

Another test has as its system melanoma tumor. Kind of test: Melanoma tumor in nude mice, 5 days of treatment. In kind it is in vivo. Conditions: 15 mg/kg intraperitoneal for 5 days, p<0.05.
For the next test, the system named is C8161 melanoma cells. Description: Cell counts, C8161. The test is classed as cell-based, human.

The text below walks through data of patent publication US20120107323A1, “KINASE PROTEIN BINDING INHIBITORS” (University of Florida, priority 2009, published 2012).

pIC50: −log10 of the molar value.

T1 sequence (Q05397 2-1052 limits assumed): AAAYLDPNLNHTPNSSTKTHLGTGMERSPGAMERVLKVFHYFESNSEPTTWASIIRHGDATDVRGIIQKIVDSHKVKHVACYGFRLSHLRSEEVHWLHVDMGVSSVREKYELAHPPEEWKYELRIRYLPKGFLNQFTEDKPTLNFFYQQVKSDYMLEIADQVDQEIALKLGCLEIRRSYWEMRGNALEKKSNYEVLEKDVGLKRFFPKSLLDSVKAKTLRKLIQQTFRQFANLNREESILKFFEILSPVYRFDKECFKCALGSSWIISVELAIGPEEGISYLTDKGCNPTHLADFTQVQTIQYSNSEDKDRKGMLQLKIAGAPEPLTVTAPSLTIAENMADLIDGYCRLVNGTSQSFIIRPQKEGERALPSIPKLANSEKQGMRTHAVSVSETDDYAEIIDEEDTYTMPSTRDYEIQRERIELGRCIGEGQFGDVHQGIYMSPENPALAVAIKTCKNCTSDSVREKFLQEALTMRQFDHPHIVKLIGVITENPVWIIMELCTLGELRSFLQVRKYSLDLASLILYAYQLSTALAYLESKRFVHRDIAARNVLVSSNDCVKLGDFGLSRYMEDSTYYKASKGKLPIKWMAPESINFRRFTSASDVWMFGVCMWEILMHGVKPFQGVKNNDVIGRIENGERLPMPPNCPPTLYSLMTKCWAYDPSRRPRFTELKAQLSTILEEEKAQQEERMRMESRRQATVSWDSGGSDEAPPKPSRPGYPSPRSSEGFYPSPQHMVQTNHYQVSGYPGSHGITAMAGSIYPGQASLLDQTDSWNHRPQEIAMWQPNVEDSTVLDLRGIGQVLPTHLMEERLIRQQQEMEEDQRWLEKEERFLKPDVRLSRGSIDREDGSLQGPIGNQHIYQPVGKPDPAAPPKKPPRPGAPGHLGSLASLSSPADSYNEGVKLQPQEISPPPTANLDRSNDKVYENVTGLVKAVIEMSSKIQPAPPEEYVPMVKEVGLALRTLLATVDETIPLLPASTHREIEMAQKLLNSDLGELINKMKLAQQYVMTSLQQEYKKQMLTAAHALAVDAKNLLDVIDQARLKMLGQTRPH

`CSc1ncnc2c1ccn2C1O[C@H](COP(=O)(O)O)[C@@H](O)[C@H]1O` (stereo partly drawn) [INT2-31, 4-(Methylthio)-7-(5-O-phosphono-D-ribofuranosyl)-{7H-Pyrrolo[2,3-d]pyrimidine}]: the pIC50 on FAK and IGF-1R is 5.57. Besides, the melanoma tumor regression entry with melanoma tumor was “caused melanoma tumor regression”. Also, the “growth, cell numbers” value in the test on C8161 melanoma cells was “potent time and dose dependent inhibition”.
